Experimental data taken from patent US20070197524A1, “Fluorenes and carbazoles as ligands of the EP2 receptor” (priority 2005, published 2007).

What was measured:
[1] = biological target: T1, human prostaglandin E2 (subtype EP2) receptor (Homo sapiens, UniProt P43116); assay: cAMP antagonism assay (HTRF cAMP detection, in presence of PGE2); type: cell-based; settings: cAMP antagonism test
T1 construct: host or cells: cells in a cell culture plate
Text: 1. Detection of the Antagonism of the Human Prostaglandin E2 (Subtype EP2) Receptor Signal
1.1 Principle of Detection
(§1) The binding of PGE2 to the EP2 subtype of the human PGE2 receptor induces activation of membrane-associated adenylate cyclases and leads to the formation of cAMP. In the presence of the phosphodiesterase inhibitor IBMX, cAMP which has accumulated due to this stimulation and been released by cell lysis is employed in a competitive detection method. In this assay, the cAMP in the lysate competes with cAMP-XL665 for binding of an Eu cryptate-labelled anti-cAMP antibody.
(§2) The two signals are measured in a suitable measuring instrument with a time lag, i.e. after the background fluorescence has declined.
1.2.1 Antagonism Assay (Data for Each Well of a 384-Well Plate):
(§3) The substance solutions (0.75 μl) introduced into an assay plate and 30% DMSO are dissolved in 16 μl of a KRSB+IBMX stimulation solution (1×Krebs-Ringer Bicarbonate Buffer; Sigma-Aldrich # K-4002; including 750 μM 3-isobutyl-1-methylxanthine Sigma-Aldrich # I-7018), and then 15 μl thereof are transferred into a media-free cell culture plate which has been washed with KRSB shortly beforehand.
After preincubation at room temperature (RT) for 30 minutes, 5 μl of a 4×PGE2 solution (11 nM) are added, and incubation is carried out in the presence of the agonist at RT for a further 60 min (volume: ˜20 μl) before the reaction is then stopped by adding 5 μl of lysis buffer and incubated at RT for a further 20 min (volume: ˜25 μl). The cell lysate is then transferred into a measuring plate and measured in accordance with the manufacturer's information (cyclic AMP kit Cisbio International # 62AMPPEC).

[2] = biological target: T1, human prostaglandin E2 (subtype EP2) receptor; assay: cAMP agonism assay (HTRF cAMP detection); type: cell-based; settings: cAMP agonism test; read-out: Agonism [ED50, μm]
Procedure: as §1, §2
1.2.2 Agonism Assay (Data for Each Well of a 384-Well Plate):
as §3
After incubation at room temperature (RT; volume: ˜15 μl) for 60 minutes, the reaction is then stopped by adding 5 μl of lysis buffer and incubated at RT for a further 20 min (volume: ˜20 μl). The cell lysate is then transferred into a measuring plate and measured in accordance with the manufacturer's information (cyclic AMP kit Cisbio International # 62AMPPEC).

cumulus-oocyte complexes = assay: Cumulus expansion assay in vitro; type: cell-based, mice; settings: concentration of 100-200 μm; test substances compete with PGE2
Procedure: 2.2 Cumulus Expansion Assay in Vitro
Folliculogenesis is induced in immature female mice (strain: CD1 (ICR) from Charles River) at an age of 14-18 days by a single dose (intraperitoneal) of 10 I.U. of PMSG (Pregnant Mare Serum Gonadotropin; Sigma G-4877, Lot 68H0909). 47-50 hours after the injection, the ovaries are removed and the cumulus-oocyte complexes are removed. The cumulus complex is not yet expanded at this stage.
The cumulus-oocyte complexes are then incubated with prostaglandin E2 (PGE2) (1 μM), vehicle control (ethanol) or test substances for 20-24 hours. Medium: alpha-MEM medium with 0.1 mM IBMX, pyruvates (0.23 mM) glutamines (2 mM), pen/strep 100 IU/ml pen. and 100 μg/ml strep. and HSA (8 mg/ml). Cumulus expansion is then established through the division into four stages (according to Vanderhyden et al. Dev Biol. 1990 August; 140 (2):307-317).

T1 sequence (P43116 whole entry): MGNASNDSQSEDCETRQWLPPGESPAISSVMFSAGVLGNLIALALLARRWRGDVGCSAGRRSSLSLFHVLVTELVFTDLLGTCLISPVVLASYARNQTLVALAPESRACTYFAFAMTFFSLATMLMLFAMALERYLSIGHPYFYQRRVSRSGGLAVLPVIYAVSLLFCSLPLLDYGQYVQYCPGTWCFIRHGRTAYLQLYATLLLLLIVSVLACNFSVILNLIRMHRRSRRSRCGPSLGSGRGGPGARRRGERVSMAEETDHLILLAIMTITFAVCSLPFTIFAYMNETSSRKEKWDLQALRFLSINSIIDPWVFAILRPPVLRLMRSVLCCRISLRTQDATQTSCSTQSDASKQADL

| Structure (SMILES) | IC50 [1] [µM] | EC50 [2] [µM] | suppression of cumulus expansion (cumulus-oocyte complexes) |
| --- | --- | --- | --- |
| CCOC(=O)Cn1c2ccccc2c2ccc(OCCCCOc3cccc(C(=O)OC)c3)cc21 [XII/5, Methyl 3-[4-(9-ethoxycarbonylmethyl-9H-carbazol-2-yloxy)butoxy]benzoate] | > 19 | 6.3 |  |
| CC(=O)c1cccc(OCCCCOc2ccc3c4ccccc4n(CC(=O)O)c3c2)c1 [XIII/12, {2-[4-(3-acetylphenoxy)butoxy]carbazol-9-yl}acetic acid] | 6.3 | > 19 |  |
| O=C(O)Cn1c2ccccc2c2ccc(OCCCCOc3ccc(-n4cccc4)cc3)cc21 [XIII/22, {2-[4-(4-pyrrol-1-ylphenoxy)butoxy]carbazol-9-yl}acetic acid] | 1.2 | > 19 |  |
| O=C(O)Cn1c2ccccc2c2ccc(OCCCCCOc3ccccc3)cc21 [XIII/140, [2-(5-phenoxypentyloxy)carbazol-9-yl]acetic acid] | 6.7 | > 19 |  |
| O=C(O)Cn1c2ccccc2c2ccc(OCCCOc3ccccc3)cc21 [XIII/85, [2-(3-phenoxypropoxy)carbazol-9-yl]acetic acid] | 6.7 | > 19 |  |
| O=C(O)CCn1c2ccccc2c2ccc(OCCCCOc3ccc4c(c3)CCC(=O)N4)cc21 [XIII/67, 3-{2-[4-(2-oxo-1,2,3,4-tetrahydroquinolin-6-yloxy)butoxy]carbazol-9-yl}propionic acid] | 3.2 | > 19 |  |
| CC(=O)Nc1cccc(OCCCCOc2ccc3c(c2)C(CC(=O)O)c2ccccc2-3)c1 (racemic) [VI/4, (R/S) {2-[4-(3-Acetylaminophenoxy)butoxy]-9H-fluoren-9-yl}acetic acid] | > 19 | 6.3 |  |
| CC(C)Oc1ccc2c(=O)c3cc(C(=O)O)ccc3oc2c1 [AH6809, reference compound] | > 19 | > 19 | about 20% |
| O=C(O)CC1c2ccccc2-c2ccc(OCCCCOc3cccc(O)c3)cc21 (racemic) [VI/3, (R/S) {2-[4-(3-Hydroxyphenoxy)butoxy]-9H-fluoren-9-yl}acetic acid] | 6.4 | > 19 | ~50% |
